Test results reported in patent US20060014940A1, “Cloning and characterization of slc26a6, slc26a1, and slc26a2 anion exchangers” (priority 2002, published 2006).

What was measured:
[1] = target: T1, mouse SLC26A6b (Mus musculus, UniProt Q8CIW6, R572P); experiment: Radiolabelled anion uptake/exchange in Xenopus oocytes expressing mouse SLC26A6b; assay type: cell-based
T1 construct: Full-length mouse SLC26A6b and SLC26A 1 cDNAs were cloned into the Xenopus expression vector pGEMHE; expressed in transfected cells; host or cells: Xenopus laevis oocytes injected with in vitro transcribed cRNA (pGEMHE)
T1 sequence (Q8CIW6 24-758 R572P limits assumed): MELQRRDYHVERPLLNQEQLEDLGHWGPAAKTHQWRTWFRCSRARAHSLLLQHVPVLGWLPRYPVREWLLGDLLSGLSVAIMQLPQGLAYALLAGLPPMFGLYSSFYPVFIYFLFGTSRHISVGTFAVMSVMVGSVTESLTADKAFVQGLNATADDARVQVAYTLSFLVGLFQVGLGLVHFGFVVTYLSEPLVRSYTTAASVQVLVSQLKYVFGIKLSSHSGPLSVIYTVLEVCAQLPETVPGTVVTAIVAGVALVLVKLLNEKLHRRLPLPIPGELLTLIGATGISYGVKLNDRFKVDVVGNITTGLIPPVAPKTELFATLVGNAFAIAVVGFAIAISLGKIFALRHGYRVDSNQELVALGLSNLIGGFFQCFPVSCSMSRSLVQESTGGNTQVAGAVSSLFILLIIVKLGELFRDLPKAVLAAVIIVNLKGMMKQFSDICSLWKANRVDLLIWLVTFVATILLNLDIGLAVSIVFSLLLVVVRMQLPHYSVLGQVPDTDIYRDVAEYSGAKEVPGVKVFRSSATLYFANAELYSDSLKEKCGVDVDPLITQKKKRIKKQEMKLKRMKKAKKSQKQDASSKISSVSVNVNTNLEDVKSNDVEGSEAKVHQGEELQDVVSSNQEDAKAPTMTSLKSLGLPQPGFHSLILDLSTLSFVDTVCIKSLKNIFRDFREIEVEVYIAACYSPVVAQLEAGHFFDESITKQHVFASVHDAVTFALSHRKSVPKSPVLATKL
Protocol: (§1) Full-length mouse SLC26A6b and SLC26A 1 cDNAs were cloned into the Xenopus expression vector pGEMHE (Liman et al., 1992). The SLC26A6 and SLC26A1 expression constructs were linearized, and cRNA was transcribed in vitro using T7 RNA polymerase and a […] MMACHINE® transcription kit (Ambion, Inc. of Austin, Tex., United States of America). Defolliculated oocytes were injected with 25 nl to 50 nl of water or with a solution containing cRNA at a concentration of 0.5 μg/μl (12.5 ng to 25 ng per oocyte) using a Nanoliter-2000 injector (WPI Instruments of Sarasota, Fla., United States of America). Oocytes were incubated at 17° C. in 50% Leibovitz's L-15 media supplemented with penicillin/streptomycin (1000 units/ml) and glutamine for 2-3 days for uptake assays.
(§2) For sulphate uptake assays, oocytes were pre-incubated for 20 minutes in chloride-free uptake medium (100 mM NMDG gluconate, 2 mM potassium gluconate, 1 mM calcium gluconate, 1 mM magnesium gluconate, 10 mM HEPES-Tris, pH 6.0 or pH 7.5 as indicated), followed by a 60-minute period for uptake in the same medium supplemented with 1 mM K2^35SO4 (40 μCi/ml). The cells were then washed three times in uptake buffer with 5 mM cold K2SO4 to remove tracer activity in the extracellular fluid. The oocytes were dissolved individually in 10% SDS, and tracer activity was determined by scintillation counting. Uptake of chloride, formate, and oxalate was assayed using the same chloride-free uptake solutions, substituting 8.3 mM ^36Cl, 500 μM [^14C]oxalate, or 50 μM [^14C]formate for labeled sulphate.
(§3) For sulphate exchange and cis-inhibition experiments, the concentration of NMDG-gluconate in the uptake solution was adjusted to maintain isotonic osmolality, which was confirmed experimentally using a FISKE® osmometer (Fiske Associates, Inc. of Bethel, Conn., United States of America).

[2] = target: T2, mouse SLC26A1 (Mus musculus, UniProt P58735, C691Y); experiment: Radiolabelled anion uptake in Xenopus oocytes expressing mouse SLC26A1; assay type: cell-based
T2 construct: Full-length mouse SLC26A6b and SLC26A 1 cDNAs were cloned into the Xenopus expression vector pGEMHE; expressed in transfected cells; host or cells: Xenopus laevis oocytes injected with in vitro transcribed cRNA (pGEMHE)
T2 sequence (P58735 1-704 C691Y): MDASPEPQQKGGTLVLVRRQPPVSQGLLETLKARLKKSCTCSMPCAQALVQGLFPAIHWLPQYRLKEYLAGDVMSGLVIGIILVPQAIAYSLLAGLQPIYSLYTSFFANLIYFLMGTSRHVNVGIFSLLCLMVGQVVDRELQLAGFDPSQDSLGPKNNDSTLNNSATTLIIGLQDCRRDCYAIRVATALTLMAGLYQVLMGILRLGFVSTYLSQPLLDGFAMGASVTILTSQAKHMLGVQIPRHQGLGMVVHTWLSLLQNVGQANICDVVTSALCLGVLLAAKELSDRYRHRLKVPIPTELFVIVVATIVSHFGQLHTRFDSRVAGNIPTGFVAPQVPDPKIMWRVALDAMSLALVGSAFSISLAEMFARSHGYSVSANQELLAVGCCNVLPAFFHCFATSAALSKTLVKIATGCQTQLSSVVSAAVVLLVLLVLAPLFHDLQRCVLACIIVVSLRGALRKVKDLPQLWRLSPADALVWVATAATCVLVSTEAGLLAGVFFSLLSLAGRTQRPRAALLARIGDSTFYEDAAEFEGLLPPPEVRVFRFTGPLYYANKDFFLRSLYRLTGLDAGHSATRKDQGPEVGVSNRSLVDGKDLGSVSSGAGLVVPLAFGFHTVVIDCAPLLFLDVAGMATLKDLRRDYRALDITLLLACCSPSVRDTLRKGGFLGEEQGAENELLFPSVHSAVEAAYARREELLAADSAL
Protocol: as §1, §2, §3

## O=C(O)C(=O)O [oxalate]
[1]; 500 μM [14C]oxalate (FIG. 8A)
  oxalate uptake: 487±50 pmol/oocyte/hour
[1]; 10 mM of the anion, 30 minutes (FIG. 7C)
  exchange of SO4 2− with extracellular anion (trans-stimulation of 35SO4 efflux): clearly mediated exchange
[2]; 25 mM of the anion (FIG. 9A, 6C)
  effect of extracellular anion on SO4 2− transport via SLC26A1: strongly cis-inhibitory
[2]; SLC26A1-injected oocytes (FIG. 8A)
  oxalate uptake: 72±2 pmol/oocyte/h
